In the supplement of paper PMC10307832:

Experiments:
Experiment in all cases: relative viability (nuclei count vs DMSO), 5 days (fraction); higher = more cells survive
[1] = system: NCI-H522
Method in brief: (§1)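 Relative viability was taken as the ratio of nuclei in treated wells to nuclei in vehicle wells. Lung cancer cell lines in 1536-well plates received compounds by pin tool one day after seeding, either one drug alone or a fixed anchor-drug dose plus five library-drug doses (not always all listed) in √10 steps. Nuclei were counted on 4× images after 5 days of treatment, and values are medians of duplicate plates.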

[2] = system: NCI-H1648
Method in brief: as §1

[3] = system: NCI-H1703
Method in brief: as §1

[4] = system: SW 900
Method in brief: as §1

[5] = system: NCI-H2342
Method in brief: as §1

[6] = system: NCI-H1563
Method in brief: as §1

[7] = system: NCI-H1623
Method in brief: as §1

[8] = system: IA-LM
Method in brief: as §1

SMILES	relative viability ([1]; first compound 0.08 µM)	relative viability ([1]; first compound 0.253 µM)	relative viability ([1]; first compound 0.8 µM)	relative viability ([1]; first compound 2.53 µM)	relative viability ([1]; first compound 8 µM)	relative viability ([2]; first compound 0.08 µM)	relative viability ([2]; first compound 0.8 µM)	relative viability ([2]; first compound 2.53 µM)	relative viability ([2]; first compound 8 µM)	relative viability ([3]; first compound 0.08 µM)	relative viability ([3]; first compound 0.253 µM)	relative viability ([3]; first compound 0.8 µM)	relative viability ([3]; first compound 2.53 µM)	relative viability ([3]; first compound 8 µM)	relative viability ([4]; first compound 0.08 µM)	relative viability ([4]; first compound 0.253 µM)	relative viability ([4]; first compound 2.53 µM)	relative viability ([4]; first compound 8 µM)	relative viability ([5]; first compound 0.08 µM)	relative viability ([5]; first compound 0.253 µM)	relative viability ([5]; first compound 0.8 µM)	relative viability ([5]; first compound 2.53 µM)	relative viability ([5]; first compound 8 µM)	relative viability ([6]; first compound 0.08 µM)	relative viability ([6]; first compound 0.253 µM)	relative viability ([6]; first compound 0.8 µM)	relative viability ([6]; first compound 2.53 µM)	relative viability ([6]; first compound 8 µM)	relative viability ([7]; first compound 0.253 µM)	relative viability ([7]; first compound 0.8 µM)	relative viability ([7]; first compound 2.53 µM)	relative viability ([7]; first compound 8 µM)	relative viability ([4]; first compound 0.8 µM)	relative viability ([8]; first compound 0.08 µM)	relative viability ([8]; first compound 0.253 µM)	relative viability ([8]; first compound 2.53 µM)	relative viability ([8]; first compound 8 µM)
O=c1[nH]c2ccccc2n1C1CCN(CCCC(c2ccc(F)cc2)c2ccc(F)cc2)CC1 [Pimozide] + NC(=O)Nc1cc(-c2cccc(F)c2)sc1C(=O)N[C@H]1CCCNC1 [AZD7762] (partner 0.2 µM)	0.963	0.835	0.857	0.77	0.872	0.568	0.52	0.584	0.698	0.129	0.109	0.0889	0.1	0.122	0.524	0.599	0.591	0.478	0.524	0.526	0.465	0.48	0.492														
O=c1[nH]c2ccccc2n1C1CCN(CCCC(c2ccc(F)cc2)c2ccc(F)cc2)CC1 [Pimozide] + Cc1nc(Nc2ncc(C(=O)Nc3c(C)cccc3Cl)s2)cc(N2CCN(CCO)CC2)n1 [Dasatinib] (partner 0.075 µM)	0.856	0.883	0.81	0.924	0.86										0.51	0.816	0.551	0.567	0.33	0.337	0.339	0.299	0.323	0.474	0.429	0.484	0.426	0.459	0.597	0.536	0.52	0.56	0.37				
O=c1[nH]c2ccccc2n1C1CCN(CCCC(c2ccc(F)cc2)c2ccc(F)cc2)CC1 [Pimozide] + O=C(CCCCCCC(=O)Nc1ccccc1)NO [Vorinostat] (partner 1 µM)	0.848	0.908	0.673	0.817	0.81	0.315	0.527	0.228	0.347						0.655	0.45	0.509	0.3	0.778	0.77	0.658	0.75	0.696											0.931	0.923	0.913	0.99
